Results published in patent publication US20240083897A1, “GCN2 MODULATING COMPOUNDS AND USES THEREOF” (HiberCell, Inc., priority 2021, published 2024).

biological target: GCN2 (Homo sapiens (Human), UniProt Q9P2K8); assay: TR-FRET biochemical assay for inhibition of GCN2; conditions: not given
Sequence (Q9P2K8 whole entry): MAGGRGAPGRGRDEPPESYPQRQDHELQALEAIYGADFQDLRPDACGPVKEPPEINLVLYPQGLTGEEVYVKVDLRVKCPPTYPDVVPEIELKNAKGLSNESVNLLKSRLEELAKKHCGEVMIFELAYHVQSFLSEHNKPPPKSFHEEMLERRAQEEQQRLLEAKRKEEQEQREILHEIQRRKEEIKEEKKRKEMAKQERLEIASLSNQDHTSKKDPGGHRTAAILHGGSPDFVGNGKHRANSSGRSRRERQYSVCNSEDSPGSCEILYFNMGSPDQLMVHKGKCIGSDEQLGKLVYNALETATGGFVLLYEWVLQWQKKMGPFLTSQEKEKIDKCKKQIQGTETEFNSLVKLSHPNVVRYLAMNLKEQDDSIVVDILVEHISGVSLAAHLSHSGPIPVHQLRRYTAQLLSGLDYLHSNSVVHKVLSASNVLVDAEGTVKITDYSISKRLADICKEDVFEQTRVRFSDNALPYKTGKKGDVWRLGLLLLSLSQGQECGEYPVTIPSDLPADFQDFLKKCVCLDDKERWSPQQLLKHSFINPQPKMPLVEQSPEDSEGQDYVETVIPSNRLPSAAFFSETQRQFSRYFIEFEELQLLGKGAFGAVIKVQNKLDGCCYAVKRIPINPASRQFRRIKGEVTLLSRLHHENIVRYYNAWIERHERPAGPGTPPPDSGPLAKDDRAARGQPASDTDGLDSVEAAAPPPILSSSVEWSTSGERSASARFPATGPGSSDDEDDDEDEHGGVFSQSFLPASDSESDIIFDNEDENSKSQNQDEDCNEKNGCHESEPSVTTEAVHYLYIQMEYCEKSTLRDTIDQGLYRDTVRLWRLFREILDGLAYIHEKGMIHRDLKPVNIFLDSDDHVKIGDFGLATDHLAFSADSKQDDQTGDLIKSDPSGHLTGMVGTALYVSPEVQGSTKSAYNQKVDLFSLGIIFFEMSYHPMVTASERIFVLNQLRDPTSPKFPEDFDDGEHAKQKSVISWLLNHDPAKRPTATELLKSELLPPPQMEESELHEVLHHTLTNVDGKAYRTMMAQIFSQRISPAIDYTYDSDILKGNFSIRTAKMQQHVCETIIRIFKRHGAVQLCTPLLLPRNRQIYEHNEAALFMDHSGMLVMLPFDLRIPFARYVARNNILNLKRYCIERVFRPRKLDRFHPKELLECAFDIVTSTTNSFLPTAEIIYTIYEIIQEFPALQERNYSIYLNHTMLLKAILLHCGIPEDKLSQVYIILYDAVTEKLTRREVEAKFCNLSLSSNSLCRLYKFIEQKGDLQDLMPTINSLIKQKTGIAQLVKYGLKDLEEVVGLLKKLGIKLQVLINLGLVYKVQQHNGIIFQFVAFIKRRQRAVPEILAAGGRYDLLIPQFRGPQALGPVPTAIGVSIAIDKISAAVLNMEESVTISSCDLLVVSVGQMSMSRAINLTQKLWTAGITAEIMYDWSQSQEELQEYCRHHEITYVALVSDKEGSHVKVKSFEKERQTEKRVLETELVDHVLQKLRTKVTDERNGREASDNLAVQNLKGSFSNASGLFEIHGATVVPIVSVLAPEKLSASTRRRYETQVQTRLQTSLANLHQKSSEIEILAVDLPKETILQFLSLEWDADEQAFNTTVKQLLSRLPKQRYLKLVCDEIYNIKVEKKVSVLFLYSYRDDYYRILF

First: CNC(=O)c1ncn2c1CN(C)[C@@H](c1c(F)ccc(NS(=O)(=O)c3cc(Cl)cnc3OC)c1F)C2 (single isomer, unassigned) [Compound 33-2]
Second: CNC(=O)c1ncn2c1CC[C@H](c1c(F)ccc(NS(=O)(=O)c3cc(Cl)cnc3OC)c1F)C2 [Compound 27-1, (6R)-6-[3-(5-chloro-2-methoxypyridine-3-sulfonamido)-2,6-difluorophenyl]-N-methyl-5H,6H,7H,8H-imidazo[1,5-a]pyridine-1-carboxamide]
The IC50 of the first is higher: 500 to 1000 nM for the first, 50 to 500 nM for the second. The second is the more potent here.

`CNC(=O)c1ncn2c1CCC(c1c(Cl)ccc(NS(=O)(=O)c3cc(F)cnc3OC)c1F)C2` (stereo in doubt) [Compound 155-2, (6S)-6-[6-chloro-2-fluoro-3-(5-fluoro-2-methoxypyridine-3-sulfonamido)phenyl]-N-methyl-5H,6H,7H,8H-imidazo[1,5-a]pyridine-1-carboxamide] and `CNC(=O)c1ncn2c1CC[C@@H](c1c(F)ccc(NS(=O)(=O)c3cc(Cl)cnc3OC)c1F)C2` [Compound 27-2, (6S)-6-[3-(5-chloro-2-methoxypyridine-3-sulfonamido)-2,6-difluorophenyl]-N-methyl-5H,6H,7H,8H-imidazo[1,5-a]pyridine-1-carboxamide] fall in the same range of IC50: 50 to 500 nM for the first, 50 to 500 nM for the second.

`CNC(=O)c1ncn2c(C)c(-c3c(F)ccc(NS(=O)(=O)c4cc(Cl)cnc4OC)c3F)ccc12` [Compound 11, 6-[3-(5-chloro-2-methoxypyridine-3-sulfonamido)-2,6-difluorophenyl]-N,5-dimethyl imidazo[1,5-a]pyridine-1-carboxamide] and `CNC(=O)c1ncn2cc(-c3c(F)ccc(NS(=O)(=O)c4cc(Cl)cnc4OC)c3F)c(=O)n(C)c12` [Compound 22, 3-[3-(5-chloro-2-methoxypyridine-3-sulfonamido)-2,6-difluorophenyl]-N,1-dimethyl-2-oxoimidazo[1,5-a]pyrimidine-8-carboxamide] fall in the same range of IC50: 50 to 500 nM for the first, 50 to 500 nM for the second.

First: CNC(=O)c1ncn2cc(-c3c(F)ccc(NS(=O)(=O)c4cc(Cl)cnc4OC)c3F)c(OC)nc12 [Compound 17, 3-[3-(5-chloro-2-methoxypyridine-3-sulfonamido)-2,6-difluorophenyl]-2-methoxy-N-methylimidazo[1,5-a]pyrimidine-8-carboxamide]
Second: COc1ncc(Cl)cc1S(=O)(=O)Nc1ccc(F)c(-c2ccc3c(-c4nnc[nH]4)ncn3c2)c1F [Compound 29, 5-chloro-N-[2,4-difluoro-3-[1-(4H-1,2,4-triazol-3-yl)imidazo[1,5-a]pyridin-6-yl]phenyl]-2-methoxypyridine-3-sulfonamide]
The IC50 of the first is higher: 50 to 500 nM for the first, less than 50 nM for the second.

`CNC(=O)c1ncn2cc(-c3c(F)ccc(NS(=O)(=O)c4cc(C#N)cc(C(F)(F)F)c4)c3F)ccc12` [Compound 23, 6-[3-[3-cyano-5-(trifluoromethyl)benzenesulfonamido]-2,6-difluorophenyl]-N-methylimidazo[1,5-a]pyridine-1-carboxamide] gave an IC50 of 50 to 500 nM.

same assay, conditions: GCN2 2 nM, 100 nM GFP-eIF2a, 150 μM ATP, TR-FRET

Going from `CNC(=O)c1ncn2c1CN(C)[C@H](c1c(F)ccc(NS(=O)(=O)c3cc(Cl)cnc3OC)c1F)C2` (single isomer, unassigned) [Compound 33-1] to `CNC(=O)c1ncn2c1CCC(c1c(Cl)ccc(NS(=O)(=O)c3cc(F)cnc3OC)c1F)C2` (stereo in doubt) [Compound 155-1, (6R)-6-[6-chloro-2-fluoro-3-(5-fluoro-2-methoxypyridine-3-sulfonamido)phenyl]-N-methyl-5H,6H,7H,8H-imidazo[1,5-a]pyridine-1-carboxamide], the IC50 falls from greater than 1000 nM to less than 50 nM. The second is the more potent here.

`Cc1ncc(Cl)cc1S(=O)(=O)Nc1ccc(F)c([C@H]2CCc3c(-c4ncc[nH]4)ncn3C2)c1F` (single isomer, unassigned) [Compound 84-1] and `Cc1ncc(Cl)cc1S(=O)(=O)Nc1ccc(F)c([C@@H]2CCc3c(-c4ncc[nH]4)ncn3C2)c1F` (single isomer, unassigned) [Compound 84-2] cannot be ordered by IC50: less than 50 nM for the first, less than 50 nM for the second.

`CNC(=O)c1ncn2nc(-c3c(F)ccc(NS(=O)(=O)c4cc(Cl)cnc4C)c3F)ccc12` [Compound 5, 2-[3-(5-chloro-2-methylpyridine-3-sulfonamido)-2,6-difluorophenyl]-N-methylimidazo[1,5-b]pyridazine-5-carboxamide] and `CNC(=O)c1ncn2nc(-c3c(F)ccc(NS(=O)(=O)c4cc(F)cnc4C)c3F)ccc12` [Compound 12, 2-[2,6-difluoro-3-(5-fluoro-2-methylpyridine-3-sulfonamido)phenyl]-N-methylimidazo[1,5-b]pyridazine-5-carboxamide] cannot be ordered by IC50: less than 50 nM for the first, less than 50 nM for the second.

`CNC(=O)c1ncn2cc(-c3c(F)ccc(NS(=O)(=O)c4cc(C#N)cnc4C)c3F)ccc12` [Compound 9, 6-[3-(5-cyano-2-methylpyridine-3-sulfonamido)-2,6-difluorophenyl]-N-methylimidazo[1,5-a]pyridine-1-carboxamide] and `CNC(=O)c1ncn2cc(-c3c(F)ccc(NS(=O)(=O)c4cc(C(F)(F)F)cnc4OC)c3F)ccc12` [Compound 13, 6-[2,6-difluoro-3-[2-methoxy-5-(trifluoromethyl)pyridine-3-sulfonamido]phenyl]-N-methylimidazo[1,5-a]pyridine-1-carboxamide] cannot be ordered by IC50: less than 50 nM for the first, less than 50 nM for the second.

`CNC(=O)c1ncn2cc(-c3c(F)ccc(NS(=O)(=O)c4cc(F)cc5c4CCC5O)c3F)ccc12` (centres unmarked) [Compound 10, 6-[2,6-difluoro-3-(6-fluoro-1-hydroxy-2,3-dihydro-1H-indene-4-sulfonamido)phenyl]-N-methylimidazo[1,5-a]pyridine-1-carboxamide] and `O=S(=O)(Nc1ccc(F)c(-c2ccc3c(-c4ncc[nH]4)ncn3c2)c1F)c1cc(F)cc2c1CCC2O` (centres unmarked) [Compound 28, N-[2,4-difluoro-3-[1-(1H-imidazol-2-yl)imidazo[1,5-a]pyridin-6-yl]phenyl]-6-fluoro-1-hydroxy-2,3-dihydro-1H-indene-4-sulfonamide] cannot be ordered by IC50: less than 50 nM for the first, less than 50 nM for the second.

`CNC(=O)c1ncn2c(OC)c(-c3c(F)ccc(NS(=O)(=O)c4cc(Cl)cnc4OC)c3F)ccc12` [Compound 15, 6-[3-(5-chloro-2-methoxypyridine-3-sulfonamido)-2,6-difluorophenyl]-5-methoxy-N-methylimidazo[1,5-a]pyridine-1-carboxamide] and `CNC(=O)c1ncn2c(NC)c(-c3c(F)ccc(NS(=O)(=O)c4cc(Cl)cnc4OC)c3F)ccc12` [Compound 24, 6-[3-(5-chloro-2-methoxypyridine-3-sulfonamido)-2,6-difluorophenyl]-N-methyl-5-(methylamino)imidazo[1,5-a]pyridine-1-carboxamide] cannot be ordered by IC50: greater than 1000 nM for the first, greater than 1000 nM for the second.

`COc1ncc(F)cc1S(=O)(=O)Nc1ccc(F)c(-c2ccc3c(-c4ncc[nH]4)ncn3c2)c1F` [Compound 18, N-[2,4-difluoro-3-[1-(1H-imidazol-2-yl)imidazo[1,5-a]pyridin-6-yl]phenyl]-5-fluoro-2-methoxypyridine-3-sulfonamide] and `Cc1ncc(F)cc1S(=O)(=O)Nc1ccc(F)c(-c2ccc3c(-c4ncc[nH]4)ncn3c2)c1F` [Compound 19, N-[2,4-difluoro-3-[1-(1H-imidazol-2-yl)imidazo[1,5-a]pyridin-6-yl]phenyl]-5-fluoro-2-methylpyridine-3-sulfonamide] cannot be ordered by IC50: less than 50 nM for the first, less than 50 nM for the second.

`COc1ncc(C#N)cc1S(=O)(=O)Nc1ccc(F)c(-c2ccc3c(-c4ncc[nH]4)ncn3c2)c1F` [Compound 20, 5-cyano-N-[2,4-difluoro-3-[1-(1H-imidazol-2-yl)imidazo[1,5-a]pyridin-6-yl]phenyl]-2-methoxypyridine-3-sulfonamide] and `Cc1ncc(Cl)cc1S(=O)(=O)Nc1ccc(F)c(-c2ccc3c(-c4ncc[nH]4)ncn3c2)c1F` [Compound 25, 5-chloro-N-[2,4-difluoro-3-[1-(1H-imidazol-2-yl)imidazo[1,5-a]pyridin-6-yl]phenyl]-2-methylpyridine-3-sulfonamide] cannot be ordered by IC50: less than 50 nM for the first, less than 50 nM for the second.

`CNC(=O)c1ncc2c(F)c(-c3c(F)ccc(NS(=O)(=O)c4cc(Cl)cnc4OC)c3F)ccn12` [Compound 21, 7-[3-(5-chloro-2-methoxypyridine-3-sulfonamido)-2,6-difluorophenyl]-8-fluoro-N-methylimidazo[1,5-a]pyridine-3-carboxamide] and `CNC(=O)c1ncc2cc(-c3c(F)ccc(NS(=O)(=O)c4cc(Cl)cnc4OC)c3F)ccn12` [Compound 30, 7-[3-(5-chloro-2-methoxypyridine-3-sulfonamido)-2,6-difluorophenyl]-N-methylimidazo[1,5-a]pyridine-3-carboxamide] cannot be ordered by IC50: less than 50 nM for the first, less than 50 nM for the second.

`COc1ncc(Cl)cc1S(=O)(=O)Nc1ncc(F)c(-c2ccc3c(-c4ncc[nH]4)ncn3c2)c1F` [Compound 26, 5-chloro-N-[3,5-difluoro-4-[1-(1H-imidazol-2-yl)imidazo[1,5-a]pyridin-6-yl]pyridin-2-yl]-2-methoxypyridine-3-sulfonamide] and `COc1ncc(Cl)cc1S(=O)(=O)Nc1ccc(F)c(-c2cn3cnc(-c4ncc[nH]4)c3cn2)c1F` [Compound 31, 5-chloro-N-[2,4-difluoro-3-[1-(1H-imidazol-2-yl)imidazo[1,5-a]pyrazin-6-yl]phenyl]-2-methoxypyridine-3-sulfonamide] cannot be ordered by IC50: less than 50 nM for the first, less than 50 nM for the second.

`COc1ncc(Cl)cc1S(=O)(=O)Nc1ccc(F)c(-c2ccc3c(-c4ccn[nH]4)ncn3c2)c1F` [Compound 32, 5-chloro-N-[2,4-difluoro-3-[1-(2H-pyrazol-3-yl)imidazo[1,5-a]pyridin-6-yl]phenyl]-2-methoxypyridine-3-sulfonamide] and `COc1ncc(Cl)cc1S(=O)(=O)Nc1ccc(F)c(-c2ccc3c(-c4cnn[nH]4)ncn3c2)c1F` [Compound 34, 5-chloro-N-[2,4-difluoro-3-[1-(3H-1,2,3-triazol-4-yl)imidazo[1,5-a]pyridin-6-yl]phenyl]-2-methoxypyridine-3-sulfonamide] cannot be ordered by IC50: less than 50 nM for the first, less than 50 nM for the second.

`COc1ncc(Cl)cc1S(=O)(=O)Nc1ccc(F)c(-c2ccn3c(-c4ncc[nH]4)ncc3c2)c1F` [Compound 35, 5-chloro-N-[2,4-difluoro-3-[3-(1H-imidazol-2-yl)imidazo[1,5-a]pyridin-7-yl]phenyl]-2-methoxypyridine-3-sulfonamide] showed an IC50 of less than 50 nM.
